According to patent publication US20260022143A1, “Cyclic Peptide Inhibitors of IL-23” (JANSSEN PHARMACEUTICA NV, priority 2022, published 2026):
Counter-ions that a name gives are not always drawn. Starred links: 1 amine or outer side, 2 acyl side, 3 side chain; linkers in the order of their positions; H or OH if unused. Positions of bridges follow the written chain, without caps; N, C: chain ends. Non-standard residues stand in square brackets, D forms with d. Residues, ends and D or L forms follow the SMILES beside them. Groups on a side chain read outwards from the residue. *: point of attachment. Trp(7-CF3) = N[C@@H](Cc1c[nH]c2c(C(F)(F)F)cccc12)C(=O)O; Trp(7-Me) = Cc1cccc2c(C[C@H](N)C(=O)O)c[nH]c12; Hexanoyl(6-NMe3+) = C[N+](C)(C)CCCCCC(=O)*; Lys(Me3) = C[N+](C)(C)CCCC[C@H](N)C(=O)O; 2Nal = N[C@@H](Cc1ccc2ccccc2c1)C(=O)O; AEF = NCCOc1ccc(C[C@H](N)C(=O)O)cc1; X19 = C[N+](C)(C)C[C@@H](CC(=O)O)N*; X10 = C[N+](C)(C)C[C@H](CC(=O)O)N*; 3Pal = N[C@@H](Cc1cccnc1)C(=O)O; Lys(Me) = CNCCCC[C@H](N)C(=O)O; X7 = COCCOCCOCCOCCOCCOCCC(=O)*; Pen = CC(C)(S)[C@H](N)C(=O)O; Suc = O=C(CCC(=O)[*:2])[*:1]; Thp = NC1(C(=O)O)CCOCC1; Dap = NC[C@H](N)C(=O)O; Me2NCH2CH2 = CN(C)CC*; Tfa = O=C(C(F)(F)F)*; Sar = CNCC(=O)O

Experiment: Exposed Polar Surface Area (EPSA)
Assay type: physicochemical
Conditions: SFC on Chirex 3014 column; sample 1 mM DMSO stock; read-out: EPSA
Method in brief: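 Retention-based polarity: supercritical CO2 with 20 mM ammonium formate in MeOH (5–60%, 20%/min), Chirex 3014 column, 35 °C. Calibrated against 8 standards to give EPSA (Å^2); each sample measured twice.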

Compared with Cc1cccc2c(C[C@@H]3NC(=O)[C@H]([C@@H](C)O)NC(=O)[C@H](CC(=O)N(C)C)NC(=O)[C@@H](NC(=O)CCCCC[N+](C)(C)C)C(C)(C)SSC(C)(C)[C@@H](C(=O)N[C@@H](Cc4ccc(OCCN(C)C)cc4)C(=O)N[C@@H](Cc4ccc5ccccc5c4)C(=O)NC4(C(=O)N[C@@H](CCC(=O)N(C)C)C(=O)N[C@@H](CC(N)=O)C(=O)N[C@@H](Cc5cccnc5)C(=O)N(C)CC(=O)N(C)C)CCOCC4)NC(=O)[C@H](CCC(=O)N(C)C)NC3=O)c[nH]c12 [compound 91, 5cpaCO-Pen(3)-N(N(Me)2)-T-7MeW-Q(N(Me)2)-Pen(3)-AEF(N(Me)2)-2Nal-THP-Q(N(Me)2)-N-3Pya-Sar-CON(Me)2] ({Hexanoyl(6-NMe3+)}-[Pen]D(NMe2)T[Trp(7-Me)]E(NMe2)[Pen]Y(Me2NCH2CH2)[2Nal][Thp]E(NMe2)N[3Pal][Sar]-NMe2; disulfide 1-6), CC(=O)N(C)CCCC[C@@H]1NC(=O)[C@H](Cc2c[nH]c3c(C)cccc23)NC(=O)[C@H]([C@@H](C)O)NC(=O)[C@H](CC(=O)N(C)C)NC(=O)[C@@H](NC(=O)[C@H](CCCC[N+](C)(C)C)NC(=O)C(F)(F)F)C(C)(C)SSC(C)(C)[C@@H](C(=O)N[C@@H](Cc2ccc(OCCN(C)C)cc2)C(=O)N[C@@H](Cc2ccc3ccccc3c2)C(=O)NC2(C(=O)N[C@@H](CCC(=O)O)C(=O)N[C@@H](CC(N)=O)C(=O)N[C@@H](Cc3cccnc3)C(=O)N(C)CC(=O)N(C)C)CCOCC2)NC1=O [compound 93, CF3CO-K(Me)3-Pen(3)-N(N(Me)2)-T-7MeW-K(NMeAc)-Pen(3)-AEF(N(Me)2)-2Nal-THP-E-N-3Pya-Sar-CON(Me)2] (Tfa-[Lys(Me3)][Pen]D(NMe2)T[Trp(7-Me)][Lys(Me)](Ac)[Pen]Y(Me2NCH2CH2)[2Nal][Thp]EN[3Pal][Sar]-NMe2; disulfide 2-7) is higher in EPSA: 145 A^2 for the first, 151 A^2 for the second.

Compared with COCCOCCOCCOCCOCCOCCC(=O)N(C)CCCC[C@H](NC(=O)C1(NC(=O)[C@H](Cc2ccc3ccccc3c2)NC(=O)[C@H](Cc2ccc(OCCN)cc2)NC(=O)[C@H]2NC(=O)[C@H](CCCCNC(C)=O)NC(=O)[C@H](Cc3c[nH]c4c(C)cccc34)NC(=O)[C@H]([C@@H](C)O)NC(=O)[C@H](CC(N)=O)NC(=O)[C@@H](NC(C)=O)C(C)(C)SSC2(C)C)CCOCC1)C(=O)N[C@@H](CC(N)=O)C(=O)N[C@@H](Cc1cccnc1)C(=O)N(C)CC(N)=O [compound 92] (Ac-[Pen]NT[Trp(7-Me)]K(Ac)[Pen][AEF][2Nal][Thp][Lys(Me)](X7)N[3Pal][Sar]-NH2; disulfide 1-6), CC(=O)NCCCC[C@@H]1NC(=O)[C@H](Cc2c[nH]c3c(C)cccc23)NC(=O)[C@H]([C@@H](C)O)NC(=O)[C@H](CC(N)=O)NC(=O)[C@@H](NC(=O)CCCCC[N+](C)(C)C)C(C)(C)SSC(C)(C)[C@@H](C(=O)N[C@@H](Cc2ccc(OCCN)cc2)C(=O)N[C@@H](Cc2ccc3ccccc3c2)C(=O)NC2(C(=O)N[C@@H](CNC(C)=O)C(=O)N[C@@H](CC(N)=O)C(=O)N[C@@H](Cc3cccnc3)C(=O)N(C)CC(N)=O)CCOCC2)NC1=O [compound 99] ({Hexanoyl(6-NMe3+)}-[Pen]NT[Trp(7-Me)]K(Ac)[Pen][AEF][2Nal][Thp][Dap](Ac)N[3Pal][Sar]-NH2; disulfide 1-6 (inferred)) is higher in EPSA: 151 A^2 for the first, 164 A^2 for the second.

Going from CC(=O)N(C)CCCC[C@@H]1NC(=O)[C@H](Cc2c[nH]c3c(C(F)(F)F)cccc23)NC(=O)[C@H]([C@@H](C)O)NC(=O)[C@H](CC(=O)N(C)C)NC(=O)[C@@H](NC(=O)C(F)(F)F)C(C)(C)SSC(C)(C)[C@@H](C(=O)N[C@@H](Cc2ccc(OCCN)cc2)C(=O)N[C@@H](Cc2ccc3ccccc3c2)C(=O)NC2(C(=O)N[C@@H](CCCCN(C)C(C)=O)C(=O)N[C@@H](CC(N)=O)C(=O)N[C@@H](Cc3cccnc3)C(=O)N(C)CC(=O)N(C)C)CCOCC2)NC1=O [compound 94, CF3CO-Pen(3)-N(N(Me)2)-T-7CF3W-K(NMeAc)-Pen(3)-AEF-2Nal-THP-K(NMeAc)-N-3Pya-Sar-CON(Me)2] (Tfa-[Pen]D(NMe2)T[Trp(7-CF3)][Lys(Me)](Ac)[Pen][AEF][2Nal][Thp][Lys(Me)](Ac)N[3Pal][Sar]-NMe2; disulfide 1-6) to CC(=O)N(C)CCCC[C@@H]1NC(=O)[C@H](Cc2c[nH]c3c(C(F)(F)F)cccc23)NC(=O)[C@H]([C@@H](C)O)NC(=O)[C@H](CC(=O)N(C)C)NC(=O)[C@@H](NC(=O)C(F)(F)F)C(C)(C)SSC(C)(C)[C@@H](C(=O)N[C@@H](Cc2ccc(OCCN(C)C)cc2)C(=O)N[C@@H](Cc2ccc3ccccc3c2)C(=O)NC2(C(=O)N[C@@H](CCCCN(C)C(C)=O)C(=O)N[C@@H](CC(N)=O)C(=O)N[C@@H](Cc3cccnc3)C(=O)N(C)CC(=O)N(C)C)CCOCC2)NC1=O [compound 95, CF3CO-Pen(3)-N(N(Me)2)-T-7CF3W-K(NMeAc)-Pen(3)-AEF(N(Me)2)-2Nal-THP-K(NMeAc)-N-3Pya-Sar-CON(Me)2] (Tfa-[Pen]D(NMe2)T[Trp(7-CF3)][Lys(Me)](Ac)[Pen]Y(Me2NCH2CH2)[2Nal][Thp][Lys(Me)](Ac)N[3Pal][Sar]-NMe2; disulfide 1-6 (inferred)), the EPSA falls from 142 A^2 to 131 A^2.

Compared with CC(=O)NCCCC[C@@H]1NC(=O)[C@H](Cc2c[nH]c3c(C)cccc23)NC(=O)[C@H]([C@@H](C)O)NC(=O)[C@H](CC(N)=O)NC(=O)[C@@H](NC(C)=O)C(C)(C)SSC(C)(C)[C@@H](C(=O)N[C@@H](Cc2ccc(OCCN(C)C)cc2)C(=O)N[C@@H](Cc2ccc3ccccc3c2)C(=O)NC2(C(=O)N[C@@H](CNC(C)=O)C(=O)N[C@@H](CC(N)=O)C(=O)N[C@@H](Cc3cccnc3)C(=O)N(C)CC(N)=O)CCOCC2)NC1=O [compound 102] (Ac-[Pen]NT[Trp(7-Me)]K(Ac)[Pen]Y(Me2NCH2CH2)[2Nal][Thp][Dap](Ac)N[3Pal][Sar]-NH2; disulfide 1-6), CC(=O)NCCCC[C@@H]1NC(=O)[C@H](Cc2c[nH]c3c(C)cccc23)NC(=O)[C@H]([C@@H](C)O)NC(=O)[C@H](CC(N)=O)NC(=O)[C@@H](NC(=O)[C@@H](CCCCNC(=O)CCC(=O)N[C@H](CC(=O)O)C[N+](C)(C)C)NC(C)=O)C(C)(C)SSC(C)(C)[C@@H](C(=O)N[C@@H](Cc2ccc(OCCN)cc2)C(=O)N[C@@H](Cc2ccc3ccccc3c2)C(=O)NC2(C(=O)N[C@@H](CCCCNC(C)=O)C(=O)N[C@@H](CC(N)=O)C(=O)N[C@@H](Cc3cccnc3)C(=O)N(C)CC(N)=O)CCOCC2)NC1=O [compound 107] (Ac-[dK]([Suc-X19])[Pen]NT[Trp(7-Me)]K(Ac)[Pen][AEF][2Nal][Thp]K(Ac)N[3Pal][Sar]-NH2; disulfide 2-7) is higher in EPSA: 156 A^2 for the first, 173 A^2 for the second.

Molecule CC(=O)NCCCC[C@@H]1NC(=O)[C@H](Cc2c[nH]c3c(C)cccc23)NC(=O)[C@H]([C@@H](C)O)NC(=O)[C@H](CC(N)=O)NC(=O)[C@@H](NC(=O)[C@@H](CCCCNC(=O)CCC(=O)N[C@@H](CC(=O)O)C[N+](C)(C)C)NC(C)=O)C(C)(C)SSC(C)(C)[C@@H](C(=O)N[C@@H](Cc2ccc(OCCN)cc2)C(=O)N[C@@H](Cc2ccc3ccccc3c2)C(=O)NC2(C(=O)N[C@@H](CCCCNC(C)=O)C(=O)N[C@@H](CC(N)=O)C(=O)N[C@@H](Cc3cccnc3)C(=O)N(C)CC(N)=O)CCOCC2)NC1=O [compound 108] (Ac-[dK]([Suc-X10])[Pen]NT[Trp(7-Me)]K(Ac)[Pen][AEF][2Nal][Thp]K(Ac)N[3Pal][Sar]-NH2; disulfide 2-7) has an EPSA of 173 A^2.
